Data: ChEMBL document CHEMBL1124271, “Synthesis of ethyl 2-(4-chlorophenyl)-5-(2-furyl)-4-oxazoleacetate, a hypolipidemic agent, and related compounds” (1988)
The source made the active and inactive calls. The rule behind the calls is not given here.

Experiments:
Rattus norvegicus [1] = organism: Rattus norvegicus; assay: Hypolipidemic activity was expressed as percent decrease in triglycerides in Sprague-Dawley rats; type: functional; design: concentration or dose not given beside the values
Rattus norvegicus [2] = organism: Rattus norvegicus; assay: Hypolipidemic activity was expressed as percent decrease in serum cholesterol in Sprague-Dawley rats; type: functional; design: concentration or dose not given beside the values
Rattus norvegicus [3] = organism: Rattus norvegicus; assay: Inhibition of collagen-induced platelet aggregation in male SD rats; Inhibition >= 10% but < aspirin (34-96%).; type: functional
Rattus norvegicus [4] = organism: Rattus norvegicus; assay: Hypolipidemic activity was expressed as percent decrease in serum cholesterol; type: functional; design: concentration or dose not given beside the values
Rattus norvegicus [5] = organism: Rattus norvegicus; assay: Hypolipidemic activity was expressed as percent decrease in triglycerides; type: functional; design: concentration or dose not given beside the values
Rattus norvegicus [6] = organism: Rattus norvegicus; assay: The ability to inhibit platelet aggregation was tested; Inhibition >= 10% but < aspirin (34-96%); type: functional
Rattus norvegicus [7] = organism: Rattus norvegicus; assay: Hypolipidemic activity was expressed as percent decrease in serum cholesterol in Sprague-Dawley rats; No evaluation; type: functional, organism-based
Rattus norvegicus [8] = organism: Rattus norvegicus; assay: Hypolipidemic activity was expressed as percent decrease in triglycerides; No evaluation; type: functional, organism-based
Rattus norvegicus [9] = organism: Rattus norvegicus; assay: Ability to inhibit collagen -induced platelet aggregation in male SD rats; No evaluation; type: functional, organism-based
Rattus norvegicus [10] = organism: Rattus norvegicus; assay: Ability to inhibit collagen -induced platelet aggregation in male SD rats; <10; type: functional; design: concentration or dose not given beside the values
Rattus norvegicus [11] = organism: Rattus norvegicus; assay: The ability to inhibit platelet aggregation was tested; <10; type: functional
Rattus norvegicus [12] = organism: Rattus norvegicus; assay: Ability to inhibit collagen -induced platelet aggregation in male SD rats; Inhibition >= aspirin (34-96%); type: functional, organism-based
Rattus norvegicus [13] = organism: Rattus norvegicus; assay: Hypolipidemic activity was expressed as percent decrease in serum cholesterol; NE means no evaluation; type: functional, organism-based
Rattus norvegicus [14] = organism: Rattus norvegicus; assay: Ability to inhibit collagen -induced platelet aggregation in male SD rats; NE means no evaluation; type: functional, organism-based
Rattus norvegicus [15] = organism: Rattus norvegicus; assay: Hypolipidemic activity was expressed as percent decrease in triglycerides; NE means no evaluation; type: functional, organism-based

Compound	Reduction (Rattus norvegicus [1]) [%]	Reduction (Rattus norvegicus [2]) [%]	Inhibition (Rattus norvegicus [3])	other results
CCOC(=O)Cc1nc(-c2ccc(Cl)cc2)oc1-c1ccc(Br)o1	2	10	–	–
O=C(O)Cc1nc(-c2ccc(F)cc2)oc1-c1ccco1	–	–	>=10%	Reduction (Rattus norvegicus [4]): 20%; Reduction (Rattus norvegicus [5]): 10%
CCCCCCCc1nc(CC(=O)O)c(-c2ccsc2)o1	–	–	>=10%	Reduction (Rattus norvegicus [4]): 11%; Reduction (Rattus norvegicus [5]): 27%
CCOC(=O)Cc1nc(-c2ccc(Cl)cc2)oc1-c1ccsc1	39	23	–	Inhibition (Rattus norvegicus [6]): >=10%
CCOC(=O)Cc1nc(C)oc1-c1ccco1	–	–	–	Reduction (Rattus norvegicus [7]): No effect; Reduction (Rattus norvegicus [8]): No effect; inhibition (Rattus norvegicus [9]): No effect
CCOC(=O)Cc1nc(-c2ccc(Cl)cc2)sc1-c1ccsc1	21	-8	–	inhibition (Rattus norvegicus [9]): No effect
CCOC(=O)Cc1nc(-c2ccc(Cl)cc2)sc1-c1ccco1	17	-15	–	–
CCCCOC(=O)Cc1nc(-c2ccc(Cl)cc2)oc1-c1ccco1	27	20	–	Inhibition (Rattus norvegicus [10]): <10%
O=C(O)Cc1nc(-c2ccc(Cl)c(Cl)c2)oc1-c1ccoc1	60	19	>=10%	–
CCOC(=O)Cc1nc(C(C)C)oc1-c1ccsc1	28	15	>=10%	–
CCOC(=O)Cc1nc(-c2ccc(Cl)cc2)oc1-c1ccc(S(=O)(=O)O)o1	23	-5	–	–
CCOC(=O)Cc1nc(-c2ccccc2)oc1-c1ccoc1	46	17	>=10%	–
CCCCc1nc(CC(=O)OCC)c(-c2ccco2)o1	16	2	–	–
CCCCCCCCCCCCOC(=O)Cc1nc(-c2ccc(Cl)cc2)oc1-c1ccco1	–	–	–	Inhibition (Rattus norvegicus [10]): <10%; Reduction (Rattus norvegicus [4]): 20%; Reduction (Rattus norvegicus [5]): 30%
CC(C)c1nc(CC(=O)O)c(-c2ccsc2)o1	16	20	>=10%	–
O=C(O)Cc1nc(C2CCCCC2)oc1-c1ccco1	18	13	>=10%	–
CCCCCCCOC(=O)Cc1nc(-c2ccc(Cl)cc2)oc1-c1ccco1	–	–	–	Inhibition (Rattus norvegicus [10]): <10%; Reduction (Rattus norvegicus [4]): 19%; Reduction (Rattus norvegicus [5]): 42%
CCOC(=O)C(C)c1nc(-c2ccc(Cl)cc2)oc1-c1ccoc1 (configuration not stated)	45	22	–	Inhibition (Rattus norvegicus [6]): >=10%
O=C(O)Cc1nc(-c2ccc(Cl)cc2)oc1-c1ccco1	35	20	>=10%	–
CCOC(=O)Cc1nc(-c2ccc(Cl)c(Cl)c2)oc1-c1ccoc1	49	19	–	Inhibition (Rattus norvegicus [10]): <10%
O=C(O)Cc1nc(-c2ccccc2)oc1-c1ccco1	29	14	>=10%	–
CCOC(=O)Cc1nc(-c2ccc(Cl)cc2)oc1-c1ccc(C=O)o1	–	–	–	Reduction (Rattus norvegicus [4]): 9%; Reduction (Rattus norvegicus [5]): -5%
CCOC(=O)Cc1nc(-c2ccc(OC)cc2)oc1-c1ccco1	4	0	>=10%	–
CCOC(=O)C(C)c1nc(-c2ccc(Cl)cc2)oc1-c1ccco1 (configuration not stated)	31	20	–	Inhibition (Rattus norvegicus [6]): >=10%
O=C(O)Cc1nc(-c2ccc(F)cc2)oc1-c1ccoc1	38	23	>=10%	–
Cc1ccc(-c2nc(CC(=O)O)c(-c3ccco3)o2)cc1	29	9	>=10%	–

Compound	Reduction (Rattus norvegicus [1]) [%]	Reduction (Rattus norvegicus [2]) [%]	Inhibition (Rattus norvegicus [3])	other results
CC(C)(C(=O)O)c1nc(-c2ccc(Cl)cc2)oc1-c1ccco1	54	16	–	Inhibition (Rattus norvegicus [11]): <10%
O=C(Cc1nc(-c2ccc(Cl)cc2)oc1-c1ccco1)OCc1cccnc1	42	18	–	Inhibition (Rattus norvegicus [10]): <10%
Cc1nc(CC(=O)O)c(-c2ccco2)o1	-20	10	–	Inhibition (Rattus norvegicus [10]): <10%
CCOC(=O)Cc1nc(-c2ccc(C)cc2)oc1-c1ccco1	-6	9	>=10%	–
CC(C)c1nc(CC(=O)O)c(-c2ccco2)o1	9	5	–	Inhibition (Rattus norvegicus [10]): <10%
COc1ccc(-c2nc(CC(=O)O)c(-c3ccco3)o2)cc1	-1	5	>=10%	–
CCOC(=O)Cc1nc(-c2ccc(F)cc2)oc1-c1ccco1	24	20	>=10%	–
CCOC(=O)Cc1nc(-c2ccc(Cl)cc2)oc1-c1ccco1	35	23	>=10%	–
CCOC(=O)C(CC)c1nc(-c2ccc(Cl)cc2)oc1-c1ccco1 (configuration not stated)	-10	0	–	Inhibition (Rattus norvegicus [11]): <10%
CCOC(=O)Cc1nc(-c2ccccc2)oc1-c1ccco1	23	14	>=10%	–
CCOC(=O)Cc1nc(-c2cccc(C(F)(F)F)c2)oc1-c1ccco1	0	15	–	Inhibition (Rattus norvegicus [10]): <10%
CCOC(=O)Cc1nc(-c2ccc(Cl)cc2)oc1-c1ccc(C(C)=O)o1	-14	0	–	–
O=C(O)Cc1nc(-c2ccc(Cl)cc2)oc1-c1ccoc1	42	23	–	–
CCOC(=O)Cc1nc(-c2ccc(F)cc2)oc1-c1ccoc1	28	30	>=10%	–
O=C(O)Cc1nc(-c2cccc(C(F)(F)F)c2)oc1-c1ccco1	50	8	>=10%	–
CCOC(=O)Cc1nc(-c2ccc(Cl)cc2)oc1N1CCCC1	-20	-2	–	–
CC(=O)Oc1ccccc1C(=O)O	–	–	–	inhibition (Rattus norvegicus [12]): Active
CCOC(=O)Cc1nc(-c2ccc(Cl)cc2)oc1-c1ccoc1	42	25	>=10%	–
CC(C(=O)O)c1nc(-c2ccc(Cl)cc2)oc1-c1ccco1 (configuration not stated)	41	16	–	–
CCCCCCCc1nc(CC(=O)OCC)c(-c2ccsc2)o1	–	–	–	Reduction (Rattus norvegicus [13]): No effect; inhibition (Rattus norvegicus [14]): No effect; Reduction (Rattus norvegicus [15]): No effect
CCOC(=O)Cc1nc(C2CCCCC2)oc1-c1ccco1	–	–	–	Reduction (Rattus norvegicus [7]): No effect; Reduction (Rattus norvegicus [8]): No effect; inhibition (Rattus norvegicus [9]): No effect
CCOC(=O)C(C)(C)c1nc(-c2ccc(Cl)cc2)oc1-c1ccco1	-25	-4	–	Inhibition (Rattus norvegicus [11]): <10%
CCOC(=O)Cc1nc(C(C)C)oc1-c1ccco1	21	12	–	Inhibition (Rattus norvegicus [10]): <10%
CCOC(=O)C(C)(C)Oc1ccc(Cl)cc1 [CLOFIBRATE]	–	–	–	Inhibition (Rattus norvegicus [10]): <10%; Reduction (Rattus norvegicus [4]): 15%; Reduction (Rattus norvegicus [5]): 30%
CCOC(=O)Cc1nc(-c2ccccc2)oc1C1CCCO1 (configuration not stated)	8	8	–	Inhibition (Rattus norvegicus [10]): <10%
